Experimental data published in article PMC3880798 (Clinical cancer research : an official journal of the …, 2013).
Several values for one entry are separate records, joined by “and”; a condition that tells them apart may be missing. Equal values may be shown once.

Assays:
Format in all cases: in vivo, human
[1] = Plasma pharmacokinetics of OSI-930; conditions: for Cmax / concentration at 22 day / half-life / Tmax / AUC: human, plasma
[2] = system: pelvic or hepatic lesions; experiment: DCE-MRI functional imaging
advanced solid tumors = experiment: Antitumor response
[3] = 19 evaluable patients with GIST
[4] = ovarian cancer patient, 400 mg twice a day
[5] = second ovarian cancer patient, 500 mg twice a day

Question: Which Cmax ([1]; oral, 100 mg, Cmax, 100 mg once a day (n = 1), day 22, steady state) does the source give for `O=C(Nc1ccc(OC(F)(F)F)cc1)c1sccc1NCc1ccnc2ccccc12` [OSI-930] here?
Answer: 228 ng/mL

Question: What about the concentration at 22 day ([1]; oral, 100 mg, Cmin, 100 mg once a day (n = 1), day 22, steady state) of the same molecule?
Answer: 61.5 ng/mL

Question: And the half-life ([1]; oral, 100 mg, T1/2, 100 mg once a day (n = 1), day 22, steady state)?
Answer: 18.5 h

Question: And the Tmax ([1]; oral, 100 mg, Tmax, 100 mg once a day (n = 1), day 22, steady state)?
Answer: 4 h

Question: What about the AUC ([1]; oral, 200 mg, AUCtau, 200 mg once a day (n = 1), day 22, steady state) of the same molecule?
Answer: 4730 ng·h/mL

Question: And the Cmax ([1]; oral, 200 mg, Cmax, 200 mg once a day (n = 1), day 22, steady state)?
Answer: 463 ng/mL

Question: What about the concentration at 22 day ([1]; oral, 200 mg, Cmin, 200 mg once a day (n = 1), day 22, steady state) of the same molecule?
Answer: 77.9 ng/mL

Question: What about the half-life ([1]; oral, 200 mg, T1/2, 200 mg once a day (n = 1), day 22, steady state) of the same molecule?
Answer: 7.95 h

Question: What about the Tmax ([1]; oral, 200 mg, Tmax, 200 mg once a day (n = 1), day 22, steady state) of the same molecule?
Answer: 6 h

Question: What about the AUC ([1]; oral, 400 mg, AUCtau, 400 mg once a day (n = 2), day 22, steady state) of the same molecule?
Answer: 10700 ng·h/mL

Question: What about the AUC ([1]; oral, 400 mg, AUCtau, 400 mg twice a day (n = 6), day 22, steady state) of the same molecule?
Answer: 7880 ng·h/mL

Question: And the Cmax ([1]; oral, 400 mg, Cmax, 400 mg once a day (n = 2), day 22, steady state)?
Answer: 873 ng/mL

Question: What about the Cmax ([1]; oral, 400 mg, Cmax, 400 mg twice a day (n = 6), day 22, steady state) of the same molecule?
Answer: 802 ng/mL

Question: What about the concentration at 22 day ([1]; oral, 400 mg, Cmin, 400 mg once a day (n = 2), day 22, steady state) of the same molecule?
Answer: 306 ng/mL

Question: And the concentration at 22 day ([1]; oral, 400 mg, Cmin, 400 mg twice a day (n = 6), day 22, steady state)?
Answer: 423 ng/mL

Question: What about the half-life ([1]; oral, 400 mg, T1/2, 400 mg once a day (n = 2), day 22, steady state) of the same molecule?
Answer: 13.8 h

Question: And the half-life ([1]; oral, 400 mg, T1/2, 400 mg twice a day (n = 6), day 22, steady state)?
Answer: 4.07 h

Question: What about the Tmax ([1]; oral, 400 mg, Tmax, 400 mg once a day (n = 2), day 22, steady state) of the same molecule?
Answer: 4 h

Question: And the Tmax ([1]; oral, 400 mg, Tmax, 400 mg twice a day (n = 6), day 22, steady state)?
Answer: 6.1 h

Question: And the AUC ([1]; oral, 500 mg, AUCtau, 500 mg twice a day (n = 21), day 22, steady state)?
Answer: 5760 ng·h/mL

Question: What about the Cmax ([1]; oral, 500 mg, Cmax, 500 mg twice a day (n = 21), day 22, steady state) of the same molecule?
Answer: 1010 ng/mL

Question: What about the concentration at 22 day ([1]; oral, 500 mg, Cmin, 500 mg twice a day (n = 21), day 22, steady state) of the same molecule?
Answer: 547 ng/mL

Question: And the half-life ([1]; oral, 500 mg, T1/2, 500 mg twice a day (n = 21), day 22, steady state)?
Answer: 7.11 h

Question: And the Tmax ([1]; oral, 500 mg, Tmax, 500 mg twice a day (n = 21), day 22, steady state)?
Answer: 3.6 h

Question: What about the AUC ([1]; oral, 600 mg, AUCtau, 600 mg twice a day (n = 6), day 22, steady state) of the same molecule?
Answer: 11900 ng·h/mL

Question: What about the Cmax ([1]; oral, 600 mg, Cmax, 600 mg twice a day (n = 6), day 22, steady state) of the same molecule?
Answer: 2030 ng/mL

Question: What about the concentration at 22 day ([1]; oral, 600 mg, Cmin, 600 mg twice a day (n = 6), day 22, steady state) of the same molecule?
Answer: 1170 ng/mL

Question: What about the half-life ([1]; oral, 600 mg, T1/2, 600 mg twice a day (n = 6), day 22, steady state) of the same molecule?
Answer: 5.39 h

Question: What about the Tmax ([1]; oral, 600 mg, Tmax, 600 mg twice a day (n = 6), day 22, steady state) of the same molecule?
Answer: 3.5 h

Question: What about the AUC ([1]; oral, 800 mg, AUCtau, 800 mg once a day (n = 2), day 22, steady state) of the same molecule?
Answer: 11300 ng·h/mL

Question: And the Cmax ([1]; oral, 800 mg, Cmax, 800 mg once a day (n = 2), day 22, steady state)?
Answer: 984 ng/mL

Question: What about the concentration at 22 day ([1]; oral, 800 mg, Cmin, 800 mg once a day (n = 2), day 22, steady state) of the same molecule?
Answer: 304 ng/mL

Question: What about the half-life ([1]; oral, 800 mg, T1/2, 800 mg once a day (n = 2), day 22, steady state) of the same molecule?
Answer: 18.1 h

Question: What about the Tmax ([1]; oral, 800 mg, Tmax, 800 mg once a day (n = 2), day 22, steady state) of the same molecule?
Answer: 4.1 h

Question: And the AUC ([1]; oral, 1200 mg, AUCtau, 1,200 mg once a day (n = 1), day 22, steady state)?
Answer: 19600 ng·h/mL

Question: What about the Cmax ([1]; oral, 1200 mg, Cmax, 1,200 mg once a day (n = 1), day 22, steady state) of the same molecule?
Answer: 1990 ng/mL

Question: What about the concentration at 22 day ([1]; oral, 1200 mg, Cmin, 1,200 mg once a day (n = 1), day 22, steady state) of the same molecule?
Answer: 493 ng/mL

Question: What about the half-life ([1]; oral, 1200 mg, T1/2, 1,200 mg once a day (n = 1), day 22, steady state) of the same molecule?
Answer: 20.2 h

Question: And the Tmax ([1]; oral, 1200 mg, Tmax, 1,200 mg once a day (n = 1), day 22, steady state)?
Answer: 4 h

Question: And the AUC ([1]; oral, 1600 mg, AUCtau, 1,600 mg once a day (n = 3), day 22, steady state)?
Answer: 13000 ng·h/mL

Question: What about the Cmax ([1]; oral, 1600 mg, Cmax, 1,600 mg once a day (n = 3), day 22, steady state) of the same molecule?
Answer: 1070 ng/mL

Question: And the concentration at 22 day ([1]; oral, 1600 mg, Cmin, 1,600 mg once a day (n = 3), day 22, steady state)?
Answer: 249 ng/mL

Question: And the half-life ([1]; oral, 1600 mg, T1/2, 1,600 mg once a day (n = 3), day 22, steady state)?
Answer: 12.6 h

Question: And the Tmax ([1]; oral, 1600 mg, Tmax, 1,600 mg once a day (n = 3), day 22, steady state)?
Answer: 6 h

Question: What about the half-life ([1]; oral, Terminal half-life, twice a day cohort) of the same molecule?
Answer: 2.3 to 7.1 h

Question: What about the Tmax ([1]; po, Time to peak plasma concentrations, once a day and twice a day cohorts) of the same molecule?
Answer: 2 to 10 h

Question: What about the “Linearity of Cmax and AUC” value ([1]; once a day cohorts) of the same molecule?
Answer: linearity in Cmax and AUC in the dose range 50 to 1,200 mg, but not at 1,600 mg

Question: What about the “Accumulation in plasma at steady state” value ([1]; twice a day oral administration) of the same molecule?
Answer: ~2 fold

Question: And the “Steady state plasma concentrations achieved” value ([1]; twice a day oral administration, predose concentrations days 8, 15, 22)?
Answer: ≤ 8 days

Question: And the “Decreases of IAUC and AUC from baseline values” ([2]; 4 responding patients, 500 mg twice a day)?
Answer: −4% to −78%

Question: What about the “Decrease in Ktrans and Ve” value ([2]; day 22, 4 of 6 patients with non-GIST tumors) of the same molecule?
Answer: > 40%

Question: And the “Duration of disease stabilization” value (advanced solid tumors; 1 patient, anthracycline-resistant low-grade sarcoma, once a day)?
Answer: 139 weeks

Question: What about the “Duration of RECIST stabilization of disease” value (advanced solid tumors; 1 patient, low-grade sarcoma, escalated from 100 to 1,200 mg once a day) of the same molecule?
Answer: 33 months

Question: And the “Patients with stable disease as best response” value (advanced solid tumors; [3])?
Answer: 57.9% and 58%

Question: What about the “RECIST PRs” value (advanced solid tumors; [3]) of the same molecule?
Answer: no RECIST PRs

Question: What about the “RECIST partial or complete responses” value (advanced solid tumors; once a day cohorts) of the same molecule?
Answer: No RECIST partial or complete responses

Question: What about the “Patients with stable disease as best response” value (advanced solid tumors; once a day cohorts, 50 to 1,600 mg) of the same molecule?
Answer: 4 of 12

Question: And the “Time of confirmed RECIST PR” value (advanced solid tumors; [4])?
Answer: 24 weeks

Question: And the “Time of disease progression” value (advanced solid tumors; [4])?
Answer: 65 weeks

Question: What about the “Time to GCIG CA125 response” value (advanced solid tumors; [4]) of the same molecule?
Answer: 15 weeks

Question: And the “Median duration of stable disease” value (advanced solid tumors; patients with GIST)?
Answer: 126 days

Question: And the “Further duration of GCIG CA125 response” value (advanced solid tumors; [5])?
Answer: 12 weeks

Question: And the “Time to GCIG CA125 response” value (advanced solid tumors; [5])?
Answer: 12 weeks

Question: And the “Patients who achieved stable disease” value (advanced solid tumors; twice a day cohort)?
Answer: 48%
